Results on 18 molecules are retold here after patent US20260055079A1, “PHTHALAZINONE COMPOUNDS AS PARP7 INHIBITORS” (AZKARRA THERAPEUTICS, INC., priority 2022, published 2026).

The test system of test [1] is HARA (human lung squamous cell carcinoma) cells. Put plainly: Cell proliferation assay (CellTiter-Glo), HARA. It counts as cell-based. To be noted: 6 days, CellTiter-Glo, read-out: HARA GI50. In general terms: In ATP-based viability assays light output follows the ATP content of the culture.
Another test deals with His-GST-PARP7 (Homo sapiens (Human), UniProt Q7Z3E1). Put plainly: PARP7 biochemical assay. To be noted: read-out: PARP7 IC50.
The test system of test [2] is NCI-H1373 (human lung adenocarcinoma) cells. The test can be described thus: Cell proliferation assay (CellTiter-Glo), NCI-H1373. The test is classed as cell-based. To be noted: 6 days, CellTiter-Glo, read-out: NCI-H1373 GI50.
For the next test, the target named is PARP2 (Homo sapiens (Human), UniProt Q9UGN5). Put plainly: PARP2 biochemical assay.

Like-named read-outs stand apart in the source and are kept apart here.

Chain of PARP2 (Q9UGN5 whole entry): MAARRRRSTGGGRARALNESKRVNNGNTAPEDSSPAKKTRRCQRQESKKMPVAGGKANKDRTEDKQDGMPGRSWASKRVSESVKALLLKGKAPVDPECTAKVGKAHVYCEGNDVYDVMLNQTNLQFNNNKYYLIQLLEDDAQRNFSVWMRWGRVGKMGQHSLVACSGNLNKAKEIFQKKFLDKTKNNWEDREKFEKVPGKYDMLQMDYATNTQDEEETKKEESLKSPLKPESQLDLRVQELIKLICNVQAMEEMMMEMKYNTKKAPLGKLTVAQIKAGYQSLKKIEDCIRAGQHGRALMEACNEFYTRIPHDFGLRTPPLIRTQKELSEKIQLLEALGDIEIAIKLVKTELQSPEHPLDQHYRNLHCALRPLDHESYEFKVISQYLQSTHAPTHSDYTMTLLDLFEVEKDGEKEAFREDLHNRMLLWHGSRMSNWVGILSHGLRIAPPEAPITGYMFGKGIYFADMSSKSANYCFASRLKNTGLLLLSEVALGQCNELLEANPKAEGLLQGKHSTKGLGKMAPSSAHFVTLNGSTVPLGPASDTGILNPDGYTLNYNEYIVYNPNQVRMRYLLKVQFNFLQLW
Chain of His-GST-PARP7 (Q7Z3E1 whole entry): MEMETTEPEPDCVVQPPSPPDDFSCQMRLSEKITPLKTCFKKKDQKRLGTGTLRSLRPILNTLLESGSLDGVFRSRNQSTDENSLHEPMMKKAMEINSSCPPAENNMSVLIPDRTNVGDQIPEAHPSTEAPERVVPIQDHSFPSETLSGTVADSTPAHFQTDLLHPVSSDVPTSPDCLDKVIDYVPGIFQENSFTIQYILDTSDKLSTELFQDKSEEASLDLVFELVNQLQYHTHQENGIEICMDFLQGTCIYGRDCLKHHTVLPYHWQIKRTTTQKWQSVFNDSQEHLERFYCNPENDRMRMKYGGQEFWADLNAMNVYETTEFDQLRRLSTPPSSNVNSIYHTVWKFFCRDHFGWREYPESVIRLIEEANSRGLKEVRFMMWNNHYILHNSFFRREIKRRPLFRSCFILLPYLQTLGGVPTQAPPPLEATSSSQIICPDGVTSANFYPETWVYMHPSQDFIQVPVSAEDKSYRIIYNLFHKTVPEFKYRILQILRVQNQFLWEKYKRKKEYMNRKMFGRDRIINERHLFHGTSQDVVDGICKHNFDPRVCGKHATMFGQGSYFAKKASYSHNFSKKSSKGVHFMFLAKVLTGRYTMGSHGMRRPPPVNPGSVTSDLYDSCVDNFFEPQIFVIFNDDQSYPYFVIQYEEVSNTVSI

By GI50 is commonly meant the concentration at which growth is held to half of that of the control. One may read the IC50 as the midpoint of a concentration-inhibition curve. Consider `Cc1nc(N2CCN(C(=O)c3cc(Cc4n[nH]c(=O)c5ccc(OC6CCC6)cc45)ccc3F)CC2)ccc1C#N` [Example 133, 6-(4-(5-((7-cyclobutoxy-4-oxo-3,4-dihydrophthalazin-1-yl)methyl)-2-fluorobenzoyl)piperazin-1-yl)-2-methylnicotinonitrile], for which the GI50 was greater than 5000 nM in test [1] (Homo sapiens, 144 h) and 100 to 1000 nM in test [2] (Homo sapiens, NCI-H1373, 144 h). Further, on His-GST-PARP7, the IC50 was less than 50 nM.

Take `O=C(c1cc(Cc2n[nH]c(=O)c3ccc(OC4CCC4)cc23)ccc1F)N1CCN(c2ccc(CO)cn2)CC1` [Example 130, 6-cyclobutoxy-4-(4-fluoro-3-(4-(5-(hydroxymethyl)pyridin-2-yl)piperazine-1-carbonyl)benzyl)phthalazin-1(2H)-one]: the GI50 in test [1] (Homo sapiens, 144 h) is greater than 5000 nM; in test [2] (Homo sapiens, NCI-H1373, 144 h), 100 to 1000 nM. In addition, the IC50 on His-GST-PARP7 is less than 50 nM.

Regarding `CCc1ccc2c(=O)[nH]nc(Cc3ccc(F)c(C(=O)N4CCN(c5ncc(C(F)(F)F)cn5)CC4)c3)c2c1` [Example 43, 6-Ethyl-4-(4-fluoro-3-(4-(5-(trifluoromethyl)pyrimidin-2-yl)piperazine-1-carbonyl)benzyl)phthalazin-1(2H)-one], the IC50 on PARP2 (read-out: PARP2 IC50) is 100 to 500 nM.

Take `O=C(c1cc(Cc2n[nH]c(=O)c3ccc(OC4CCC4)cc23)ccc1F)N1CCN(c2ncc(C3CC3)cn2)CC1` [Example 162, 6-cyclobutoxy-4-(3-(4-(5-cyclopropylpyrimidin-2-yl)piperazine-1-carbonyl)-4-fluorobenzyl)phthalazin-1(2H)-one]: the GI50 in test [1] (Homo sapiens, 144 h) was 100 to 1000 nM; in test [2] (Homo sapiens, NCI-H1373, 144 h), less than 100 nM. Moreover, at His-GST-PARP7, the IC50 is less than 50 nM.

Turning to `N#Cc1ccc(N2CCN(c3noc4c(Cc5n[nH]c(=O)c6ccc(OC7CCC7)cc56)cccc34)CC2)nc1` [Example 208, 6-(4-(7-((7-Cyclobutoxy-4-oxo-3,4-dihydrophthalazin-1-yl)methyl)benzo[d]isoxazol-3-yl)piperazin-1-yl)nicotinonitrile], the GI50 in test [1] (Homo sapiens, 144 h) lay within 1000 to 5000 nM; in test [2] (Homo sapiens, NCI-H1373, 144 h), 1000 to 5000 nM. Also, the IC50 at His-GST-PARP7 was in the range of 100 to 500 nM.

`N#Cc1ccc(N2CCN(c3noc4ccc(Cc5n[nH]c(=O)c6ccc(OC7CCC7)cc56)cc34)CC2)nc1` [Example 211, 6-(4-(5-((7-cyclobutoxy-4-oxo-3,4-dihydrophthalazin-1-yl)methyl)benzo[d]isoxazol-3-yl)piperazin-1-yl)nicotinonitrile]: the GI50 fell in the range of 1000 to 5000 nM in test [1] (Homo sapiens, 144 h) and 1000 to 5000 nM in test [2] (Homo sapiens, NCI-H1373, 144 h). Moreover, the IC50 at His-GST-PARP7 lay in the range of 100 to 500 nM.

As for `N#Cc1ccc(N2CCN(C(=O)c3cc(Cc4n[nH]c(=O)c5ccc(/C=C/C(F)(F)F)cc45)ccc3F)CC2)nc1` [Example 27, (E)-6-(4-(2-Fluoro-5-((4-oxo-7-(3,3,3-trifluoroprop-1-enyl)-3,4-dihydrophthalazin-1-yl)methyl)benzoyl)piperazin-1-yl)nicotinonitrile], on PARP2, the IC50 lay in the range of 50 to 100 nM.

For the molecule `N#Cc1ccc(N2CCN(C(=O)c3cc(Cc4n[nH]c(=O)c5ccc(CCC(F)(F)F)cc45)ccc3F)CC2)nc1` [Example 25, 6-(4-(2-Fluoro-5-((4-oxo-7-(3,3,3-trifluoropropyl)-3,4-dihydrophthalazin-1-yl)methyl)benzoyl)piperazin-1-yl)nicotinonitrile], on PARP2 (read-out: PARP2 IC50), the IC50 is 100 to 500 nM.

In the case of `O=C(c1cc(Cc2n[nH]c(=O)c3ccc(OC4CCC4)cc23)ccc1F)N1CCN(c2ncc(C(F)(F)F)cn2)CC(F)(F)C1` [Example 126, 6-Cyclobutoxy-4-(3-(6,6-difluoro-4-(5-(trifluoromethyl)pyrimidin-2-yl)-1,4-diazepane-1-carbonyl)-4-fluorobenzyl)phthalazin-1(2H)-one], the GI50 in test [1] (Homo sapiens, 144 h) was greater than 5000 nM; in test [2] (Homo sapiens, NCI-H1373, 144 h), 100 to 1000 nM. For the same molecule, the IC50 on His-GST-PARP7 was less than 50 nM.

As for `O=C(c1cc(Cc2n[nH]c(=O)c3ccc(OC4CCC4)cc23)ccc1F)N1CCN(c2ccc(C(F)(F)F)cn2)CC1` [Example 155, 6-cyclobutoxy-4-(4-fluoro-3-(4-(5-(trifluoromethyl)pyridin-2-yl)piperazine-1-carbonyl)benzyl)phthalazin-1(2H)-one], the GI50 in test [1] (Homo sapiens, 144 h) was 1000 to 5000 nM; in test [2] (Homo sapiens, NCI-H1373, 144 h), less than 100 nM. For the same molecule, at His-GST-PARP7, the IC50 is less than 50 nM.

Regarding `O=C(c1cc(Cc2n[nH]c(=O)c3ccc(OC4CCC4)cc23)ccc1F)N1CCCN(c2ncc(C(F)(F)F)cn2)CC1` [Example 98, 6-Cyclobutoxy-4-(4-fluoro-3-(4-(5-(trifluoromethyl)pyrimidin-2-yl)-1,4-diazepane-1-carbonyl)benzyl)phthalazin-1(2H)-one], the GI50 is greater than 5000 nM in test [1] (Homo sapiens, 144 h) and 100 to 1000 nM in test [2] (Homo sapiens, NCI-H1373, 144 h). Also, the IC50 at His-GST-PARP7 was less than 50 nM.

For `O=C(c1cc(Cc2n[nH]c(=O)c3ccc(OC4CCC4)cc23)ccc1F)N1CCCN(C(=O)C2CC2)CC1` [Example 101, 6-Cyclobutoxy-4-(3-(4-(cyclopropanecarbonyl)-1,4-diazepane-1-carbonyl)-4-fluorobenzyl)phthalazin-1(2H)-one], the GI50 is greater than 5000 nM in test [1] (Homo sapiens, 144 h) and greater than 5000 nM in test [2] (Homo sapiens, NCI-H1373, 144 h). The IC50 at His-GST-PARP7 was less than 50 nM.

With “6-(4-(5-((7-Cyclobutoxy-4-oxo-3,4-dihydrophthalazin-1-yl)methyl)-2-fluorobenzoyl)-6,6-difluoro-1,4-diazepan-1-yl)nicotinonitrile [Example 125]”, the GI50 in test [1] is greater than 5000 nM; in test [2], 100 to 1000 nM. The IC50 on His-GST-PARP7 was less than 50 nM.

Regarding `N#Cc1cnc(N2CCN(C(=O)c3cc(Cc4n[nH]c(=O)c5ccc(OC6CCC6)cc45)ccc3F)CC2)c(C(F)(F)F)c1` [Example 129, 6-(4-(5-((7-cyclobutoxy-4-oxo-3,4-dihydrophthalazin-1-yl)methyl)-2-fluorobenzoyl)piperazin-1-yl)-5-(trifluoromethyl)nicotinonitrile], the concentration for 50% growth inhibition (GI50) in test [1] (Homo sapiens, 144 h) lay within 1000 to 5000 nM; in test [2] (Homo sapiens, NCI-H1373, 144 h), 1000 to 5000 nM. At His-GST-PARP7, the IC50 is less than 50 nM.

`O=C(c1cc(Cc2n[nH]c(=O)c3ccc(OC4CCC4)cc23)ccc1F)N1CCN(c2cnc(C(F)(F)F)cn2)CC1` [Example 160, 6-cyclobutoxy-4-(4-fluoro-3-(4-(5-(trifluoromethyl)pyrazin-2-yl)piperazine-1-carbonyl)benzyl)phthalazin-1(2H)-one]: the GI50 in test [1] (Homo sapiens, 144 h) was 1000 to 5000 nM; in test [2] (Homo sapiens, NCI-H1373, 144 h) it was less than 100 nM. Also, the IC50 on His-GST-PARP7 is less than 50 nM.

On to `CC(CC(=O)N1CCN(c2ccc(C#N)cn2)CC1)NCc1n[nH]c(=O)c2ccc(OC3CC3)cc12` (stereo not drawn) [Example 196, 6-(4-(3-(((7-Cyclopropoxy-4-oxo-3,4-dihydrophthalazin-1-yl)methyl)amino)butanoyl)piperazin-1-yl)nicotinonitrile], for which the GI50 in test [1] (Homo sapiens, 144 h) fell in the range of 1000 to 5000 nM; in test [2] (Homo sapiens, NCI-H1373, 144 h), 1000 to 5000 nM. The IC50 at His-GST-PARP7 is less than 50 nM.

Regarding `Cc1cc(N2CCN(C(=O)c3cc(Cc4n[nH]c(=O)c5ccc(OC6CCC6)cc45)ccc3F)CC2)ncc1C#N` [Example 134, 6-(4-(5-((7-cyclobutoxy-4-oxo-3,4-dihydrophthalazin-1-yl)methyl)-2-fluorobenzoyl)piperazin-1-yl)-4-methylnicotinonitrile], the GI50 in test [1] (Homo sapiens, 144 h) is 100 to 1000 nM; in test [2] (Homo sapiens, NCI-H1373, 144 h), less than 100 nM. The IC50 on His-GST-PARP7 was less than 50 nM.

With `COc1nc(N2CCN(C(=O)c3cc(Cc4n[nH]c(=O)c5ccc(OC6CCC6)cc45)ccc3F)CC2)ccc1C#N` [Example 136, 6-(4-(5-((7-cyclobutoxy-4-oxo-3,4-dihydrophthalazin-1-yl)methyl)-2-fluorobenzoyl)piperazin-1-yl)-2-methoxynicotinonitrile], the GI50 in test [1] (Homo sapiens, 144 h) is greater than 5000 nM; in test [2] (Homo sapiens, NCI-H1373, 144 h), 100 to 1000 nM. For the same molecule, on His-GST-PARP7, the IC50 was in the range of 50 to 100 nM.
